Source: patent US9758472B2, “Non-lactone carbocyclic and heterocyclic antagonists and agonists of bacterial quorum sensing” (WISCONSIN ALUMNI RESEARCH FOUNDATION, priority 2009, dated 2017)

Tests used:
LasR [1] = molecular target: T1, LasR (Pseudomonas aeruginosa, UniProt P25084); experiment: LasR antagonism assay, E. coli DH5α (pJN105L+pSC11) β-galactosidase reporter strain; assay type: cell-based, P. aeruginosa; conditions: thiolactone libraries, synthetic ligands tested at 10 μM
T1 construct: expressed in transfected cells; host or cells: Escherichia coli DH5α (pJN105L+pSC11)

TraR = TraR (Agrobacterium tumefaciens, UniProt P33905); experiment: cell-based; assay type: cell-based; design: and Agrobacterium tumefaciens WCF (pCF372); endogenous in cells; host or cells: Agrobacterium tumefaciens WCF (pCF372); conditions: for Inhib %: thiolactone libraries, A. tumefaciens, synthetic ligands tested at 10 μM; for IC50: dose response
Experimental: (§1) The initial library was also tested in Vibrio fischeri ESI 114 (Δ-LuxI) [Lupp, C.; Urbanowski, M.; Greenberg, E. P.; Ruby, E. G., The Vibrio fischeri quorum-sensing systems ain and lux sequentially induce luminescence gene expression and are important for persistence in the squid host. Mol. Microbiol. 2003, 50 (1), 319-331] and Agrobacterium tumefaciens WCF (pCF372). […] J. Bacteriol. 1998, 180 (20), 5398-5405.] […] [Geske, G. D.; O'Neill, J. C.; Miller, D. M.; Mattmann, M. E.; Blackwell, H. E., Modulation of Bacterial Quorum Sensing: Systematic Evaluation of N-Acylated Homoserine Lactones in Multiple Species and New Insights into Their Mechanism of Action. J. Am. Chem. Soc. 2007, 129, 13613-13625.]

LuxR [2] = molecular target: T2, LuxR (Aliivibrio fischeri, UniProt P35327); experiment: cell-based; assay type: cell-based, Vibrio fischeri; design: The initial library was also tested in Vibrio fischeri ESI 114 (Δ-LuxI); endogenous in cells; host or cells: Vibrio fischeri ESI 114 (Δ-LuxI); conditions: for Inhib %: thiolactone libraries, V. fischeri, synthetic ligands tested at 10 μM; for Antagonism, in words: V. fischeri strain; for Antagonist, percent inhibition compared to a positive control: initial library (FIG. 4); for Antagonist, percent inhibition compared to a positive control / IC50: V. fischeri ESI 114 (Δ-LuxI); for IC50: dose response
Experimental: as §1

LasR [3] = molecular target: T1, LasR; experiment: LasR agonism assay, P. aeruginosa PA01 MW1 (pUM15) YFP reporter strain; assay type: cell-based; conditions: for Act %: thiolactone libraries, P. aeruginosa, synthetic ligands tested at 10 μM; for Agonist, percent of activation compared to the positive control: initial library (FIG. 4), P. aeruginosa PA01 MW1; for EC50: dose response
Experimental: (§2) The black bars are DH5α (pJN105L+pSC11) and the grey bars are PA01 MW1 (pUM15). Agonism positive control=activity of the reporter strain at full turn on for the strain. […] Negative control (Neg)=bacteria in the absence of natural and synthetic ligand. Error bars=standard deviation of the mean of triplicate samples.
(§3) The initial library was tested for LasR agonistic and antagonistic activity in two strains: Escherichia coli DH5α (pJN105L+pSC11) [Lee, J. H.; Lequette, Y.; Greenberg, E. P., Activity of purified QscR, a Pseudomonas aeruginosa orphan quorum-sensing transcription factor. Mol. Microbiol. 2006, 59 (2), 602-609] and P. aeruginosa PA01 MW1 (pUM15) [Muh, U.; Schuster, M.; Heim, R.; Singh, A.; Olson, E.; Greenberg, E. P., Novel Pseudomonas aeruginosa Quorum-Sensing Inhibitors Identified in an Ultra-High-Throughput Screen. Antimicrob. Agents Chemother. 2006, 50, 3674-3679] (FIGS. 5A and 5B). Both strains allow for synthetic autoinducer mimic evaluation and contain a reporter gene that allows for a quantitative readout of QS activity. DH5α (pJN105L+pSC11) is a heterologous β-galactosidase E. coli reporter strain containing a plasmid for the P. aeruginosa LasR gene. The PA01 MW1 (pUM15) strain uses the natural P. aeruginosa background containing a LasI deletion and the gene for yellow fluorescent protein (YFP) under the control of the LasI promoter to evaluate the LasI/R activity. Since the PA01 MW1 (pUM15) strain evaluates LasR in the natural P. aeruginosa background, in contrast to the heterologous E. coli strain, an improved idea of the interplay between the isolated LasI/R system and the combination of LasI/R with other QS subsystems such as QscR can be determined. Furthermore, additional nuances of the natural system such as compound permeability are incorporated in assays using the PA01 MW1 (pUM15) strain.

LasR [4] = molecular target: T1, LasR; experiment: LasR agonism assay, E. coli DH5α (pJN105L+pSC11) β-galactosidase reporter strain; assay type: cell-based, P. aeruginosa; conditions: for Act %: thiolactone libraries, E. coli, synthetic ligands tested at 10 μM; for Agonist, percent of activation compared to the positive control: initial library (FIG. 4); for Agonist, percent of activation compared to the positive control / LasR agonism, in words / EC50: E. coli DH5α (pJN105L+pSC11); for EC50: dose response
Experimental: as §2, §3

LasR [5] = molecular target: T1, LasR; experiment: LasR antagonism assay, P. aeruginosa PA01 MW1 (pUM15) YFP reporter strain; assay type: cell-based; conditions: for LasR antagonism, in words: P. aeruginosa PA01 MW1 (pUM15), natural background; for Antagonist, percent inhibition compared to a positive control: initial library (FIG. 4), P. aeruginosa PA01 MW1, negative values indicate agonist properties
Experimental: (§4) FIG. 5B is a bar graph showing the results of […] assay for initial heterocyclic and carbocyclic library (Scheme 1) shown as a percent of the positive control. Antagonism positive control (Pos)=activity of the reporter strain in the absence of synthetic ligand at the EC50 value for the strain. […] Negative control (Neg)=bacteria in the absence of natural and synthetic ligand. Error bars=standard deviation of the mean of triplicate samples.
as §3

LasR [6] = molecular target: T1, LasR; experiment: LasR antagonism assay, E. coli DH5α (pJN105L+pSC11) β-galactosidase reporter strain; assay type: cell-based, P. aeruginosa; conditions: E. coli DH5α (pJN105L+pSC11); for Antagonist, percent inhibition compared to a positive control: initial library (FIG. 4), negative values indicate agonist properties; for IC50: dose response
Experimental: as §4, §3

LuxR [7] = molecular target: T2, LuxR; conditions: V. fischeri ESI 114 (Δ-LuxI); for Agonist, percent of activation compared to the positive control: initial library (FIG. 4)
Experimental: as §1

T1 sequence (P25084 whole entry): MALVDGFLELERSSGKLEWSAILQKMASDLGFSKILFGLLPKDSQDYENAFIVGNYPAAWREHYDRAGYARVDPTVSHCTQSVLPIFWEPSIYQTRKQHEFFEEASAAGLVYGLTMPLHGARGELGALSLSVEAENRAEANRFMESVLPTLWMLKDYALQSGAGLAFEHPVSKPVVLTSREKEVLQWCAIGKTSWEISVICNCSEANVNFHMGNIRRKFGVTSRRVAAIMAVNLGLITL
T2 sequence (P35327 whole entry): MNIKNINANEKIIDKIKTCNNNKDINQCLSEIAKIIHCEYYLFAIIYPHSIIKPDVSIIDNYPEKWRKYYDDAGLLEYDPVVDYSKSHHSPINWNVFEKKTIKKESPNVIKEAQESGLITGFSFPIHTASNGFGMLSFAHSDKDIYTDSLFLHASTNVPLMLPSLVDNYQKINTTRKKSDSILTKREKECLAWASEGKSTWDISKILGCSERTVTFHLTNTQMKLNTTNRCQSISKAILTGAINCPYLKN
Sequence of TraR (P33905 whole entry): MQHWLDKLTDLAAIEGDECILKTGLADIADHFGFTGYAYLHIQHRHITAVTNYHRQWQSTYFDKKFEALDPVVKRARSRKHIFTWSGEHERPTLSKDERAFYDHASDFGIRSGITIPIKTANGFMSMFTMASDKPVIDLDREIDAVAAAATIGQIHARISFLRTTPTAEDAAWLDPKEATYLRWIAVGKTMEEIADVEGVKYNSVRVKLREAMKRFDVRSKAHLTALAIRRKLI

Row | SMILES | Inhib % (LasR [1]) [%] | Inhib % (TraR) [%] | Inhib % (LuxR [2]) [%] | Act % (LasR [3]) [%] | Act % (LasR [4]) [%] | other results
1 | O=C(Cc1ccc(Br)cc1)NC1CCSC1=O (racemic) [Compound 18] | 80 | −60 | 97 | 8 | 2 | 
2 | O=C(Cc1cccc([N+](=O)[O-])c1)NC1CCSC1=O (racemic) [Compound 19] | −13 | 33 | 19 | 5 | 82 | 
3 | COc1ccc(CC(=O)NC2CCSC2=O)cc1 (racemic) [Compound 20] | 51 | −107 | 70 | 7 | 1 | 
4 | O=C(Cc1ccccc1)NC1CCSC1=O (racemic) [Compound 21] | 65 | −22 | 34 | 2 | 2 | 
5 | O=C(CCc1c[nH]c2ccccc12)NC1CCSC1=O (racemic) [Compound 22] | 16 | −80 | 68 | 10 | 4 | 
6 | O=C(Cc1ccc(-c2ccccc2)cc1)NC1CCSC1=O (racemic) [Compound 23] | 56 | 9 | 98 | 3 | 9 | 
7 | CCCCCCCCCC(=O)CC(=O)NC1CCSC1=O (stereo not shown) [Compound 1] | −40 | 92 | 99 | 88 | 94 | Antagonism, in words (TraR; A. tumefaciens strain): good antagonist; Antagonist, percent inhibition compared to a positive control (TraR; initial library (FIG. 4), A. tumefaciens WCF (pCF372), negative values indicate agonist properties): 65%; Antagonism, in words (LuxR [2]): good antagonist; Antagonist, percent inhibition compared to a positive control (LuxR [2]): 92%; Agonist, percent of activation compared to the positive control (LasR [3]): 88%; Agonist, percent of activation compared to the positive control (LasR [4]): 94%
8 | CCCCCCCCCC(=O)CC(=O)Nc1ccccc1 [Compound 2] |  |  |  |  |  | LasR antagonism, in words (LasR [5]): antagonism capabilities; Antagonist, percent inhibition compared to a positive control (LasR [5]): 28.7%; LasR antagonism, in words (LasR [6]): antagonism capabilities; Antagonist, percent inhibition compared to a positive control (LasR [6]): 53.7%
9 | CCCCCCCCCC(=O)CC(=O)NC1CCCC1 [Compound 3] |  |  |  |  |  | Antagonism, in words (LuxR [2]): modest antagonist; Antagonist, percent inhibition compared to a positive control (LuxR [2]): 89.4%; LasR agonism, in words (LasR [3]; P. aeruginosa PA01 MW1 (pUM15), natural background): agonist; Agonist, percent of activation compared to the positive control (LasR [3]): 54.2%; LasR agonism, in words (LasR [4]): agonist; Agonist, percent of activation compared to the positive control (LasR [4]): 83.5%
10 | CCCCCCCCCC(=O)CC(=O)NCc1ccccc1F [Compound 7] |  |  |  |  |  | Agonist, percent of activation compared to the positive control (LuxR [7]): 3.1%; Antagonist, percent inhibition compared to a positive control (LasR [6]): 38.8%
11 | CCCCCCCCCC(=O)CC(=O)NCc1ccco1 [Compound 10] |  |  |  |  |  | Agonist, percent of activation compared to the positive control (LuxR [7]): 3.3%; Antagonist, percent inhibition compared to a positive control (LasR [5]): 25.5%
12 | CCCCCCCCCC(=O)CC(=O)NCc1ccc(OC)cc1 [Compound 14] |  |  |  |  |  | Antagonist, percent inhibition compared to a positive control (LuxR [2]): 14.6%; LasR antagonism, in words (LasR [5]): slight antagonism; Antagonist, percent inhibition compared to a positive control (LasR [5]): 37.8%; Antagonist, percent inhibition compared to a positive control (LasR [6]): −67.7%; LasR agonism, in words (LasR [4]): strongly agonized; Agonist, percent of activation compared to the positive control (LasR [4]): 73.0%
13 | O=C(Cc1ccc(Br)cc1)N[C@H]1CCSC1=O [Compound 18E] | 68 | 25 | 91 | 5 | 8 | IC50 (LuxR [2]): 770 nM; IC50 (LasR [6]): 400 nM
14 | O=C(Cc1cccc([N+](=O)[O-])c1)N[C@H]1CCSC1=O [Compound 19E] | −3 | 30 | 30 | 3 | 81 | EC50 (LuxR [7]; dose response): 11000 nM; EC50 (LasR [4]): 4100 nM
15 | COc1ccc(CC(=O)N[C@H]2CCSC2=O)cc1 [Compound 20E] | 48 | −24 | 59 | 4 | 0 | IC50 (LasR [6]): 7200 nM
16 | O=C(Cc1ccccc1)N[C@H]1CCSC1=O [Compound 21E] | 61 | 13 | 30 | 17 | 3 | IC50 (LasR [6]): 2500 nM
17 | O=C(Cc1ccc(-c2ccccc2)cc1)N[C@H]1CCSC1=O [Compound 23E] | 45 | 26 | 85 | 1 | 0 | IC50 (LuxR [2]): 350 nM; IC50 (LasR [6]): 2900 nM
18 | CCCCCCCCCCCC(=O)N[C@H]1CCSC1=O [Compound 25E] | −93 | 6 | 57 | 42 | 4 | EC50 (LasR [3]; P. aeruginosa PA01 MW1 (pUM15)): 21000 nM; LasR agonism, in words (LasR [4]): strong agonists; EC50 (LasR [4]): 1900 nM
19 | CCCCCCCC(=O)N[C@H]1CCSC1=O [Compound 26E] | 64 | 99 | 80 | 0 | 85 | IC50 (TraR; A. tumefaciens WCF (pCF372)): 2800 nM; IC50 (LuxR [2]): 130 nM; IC50 (LasR [6]): 140 nM
20 | CCCCCCC(=O)N[C@H]1CCSC1=O [Compound 27E] | 78 | 78 | 78 | 0 | 8 | IC50 (TraR; A. tumefaciens WCF (pCF372)): 10000 nM; IC50 (LuxR [2]): 310 nM; IC50 (LasR [6]): 790 nM
21 | CCCCCC(=O)N[C@H]1CCSC1=O [Compound 28E] | 59 | −78 | 93 | 20 | 1 | IC50 (LuxR [2]): 840 nM; IC50 (LasR [6]): 1100 nM
22 | CCCC(=O)N[C@H]1CCSC1=O [Compound 29E] | 17 | −70 | 42 | 22 | 4 | 
23 | CCCC(=O)CC(=O)N[C@H]1CCSC1=O [Compound 30E] | −119 | 93 | 62 | 76 | 6 | IC50 (TraR; A. tumefaciens WCF (pCF372)): 3200 nM; EC50 (LasR [3]; P. aeruginosa PA01 MW1 (pUM15)): 13000 nM; EC50 (LasR [4]): 130 nM
24 | CCOC(=O)CNC(=O)CCc1cccc(I)c1 [Compound 34] |  |  |  |  |  | Antagonism, in words (LuxR [2]): excellent antagonistic activity
